Source: the supplement of paper PMC10307832

What was measured:
Assay in all cases: relative viability (nuclei count vs DMSO), 5 days (fraction); higher = more cells survive
[1] = compound: COc1cc(Nc2ncc(F)c(Nc3ccc4c(n3)NC(=O)C(C)(C)O4)n2)cc(OC)c1OC [R406] + Cc1nc(Nc2ncc(C(=O)Nc3c(C)cccc3Cl)s2)cc(N2CCN(CCO)CC2)n1 [Dasatinib] (partner 0.075 µM)
In short: (§1)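 For relative viability, nuclei counts in treated wells were divided by those in vehicle wells. Lung cancer cell lines had been pin-tool dosed in 1536-well plates the day after seeding and cultured for 5 days, then fixed and stained in one step (final 0.05% Triton X-100, 1% formaldehyde, 1 ug/ml Hoechst) and imaged at 4×. Doses were one drug alone or a fixed anchor-drug dose plus five library-drug doses (not always all listed) in √10 steps, and values are duplicate-plate medians.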

[2] = compound: COc1cc(Nc2ncc(F)c(Nc3ccc4c(n3)NC(=O)C(C)(C)O4)n2)cc(OC)c1OC [R406] + Cc1nc(NC(=O)N2CCC[C@H]2C(N)=O)sc1-c1ccnc(C(C)(C)C(F)(F)F)c1 [Alpelisib] (partner 2 µM)
In short: as §1

[3] = compound: O=C(/C=C/c1cccnc1)NCCCCC1CCN(C(=O)c2ccccc2)CC1 [Daporinad] + COc1cc2c(Oc3ccc(NC(=O)C4(C(=O)Nc5ccc(F)cc5)CC4)cc3F)ccnc2cc1OCCCN1CCOCC1 [Foretinib] (partner 0.25 µM)
In short: as §1

[4] = compound: O=C(/C=C/c1cccnc1)NCCCCC1CCN(C(=O)c2ccccc2)CC1 [Daporinad] + C[C@@H](Oc1cc(-c2cnn(C3CCNCC3)c2)cnc1N)c1c(Cl)ccc(F)c1Cl [Crizotinib] (partner 1 µM)
In short: as §1

| Cell Line | relative viability ([1]; first compound 0.08 µM) | relative viability ([1]; first compound 0.253 µM) | relative viability ([1]; first compound 0.8 µM) | relative viability ([1]; first compound 2.53 µM) | relative viability ([1]; first compound 8 µM) | relative viability ([2]; first compound 0.08 µM) | relative viability ([2]; first compound 0.253 µM) | relative viability ([2]; first compound 0.8 µM) | relative viability ([2]; first compound 8 µM) | relative viability ([3]; first compound 0.0005 µM) | relative viability ([3]; first compound 0.001581 µM) | relative viability ([3]; first compound 0.005 µM) | relative viability ([3]; first compound 0.01581 µM) | relative viability ([4]; first compound 0.0005 µM) | relative viability ([4]; first compound 0.001581 µM) | relative viability ([4]; first compound 0.005 µM) | relative viability ([4]; first compound 0.01581 µM) | relative viability ([2]; first compound 2.53 µM) |
| --- | --- | --- | --- | --- | --- | --- | --- | --- | --- | --- | --- | --- | --- | --- | --- | --- | --- | --- |
| HCC-366 | 0.62 | 0.799 | 0.735 | 0.546 | 0.235 | 0.41 | 0.439 | 0.441 | 0.0784 | 0.962 | 0.844 | 0.972 | 0.959 | 0.696 | 0.628 | 0.864 | 0.634 | – |
| HCC-827 | 0.309 | 0.252 | 0.325 | 0.312 | 0.229 | 1.04 | 0.903 | 1.03 | 0.282 | 0.984 | 1.14 | 1.1 | 1.11 | 0.963 | 1.01 | 0.936 | 0.931 | 0.827 |
| HOP-62 | 0.618 | 0.73 | 0.797 | 0.729 | 0.391 | 0.779 | 1.04 | 0.886 | 0.913 | 0.838 | 1.01 | 1.1 | 0.639 | – | 1.05 | 0.994 | 0.789 | 1.09 |
| IA-LM | – | – | – | – | – | 0.888 | 0.999 | 1 | 0.81 | 1.06 | 1.12 | 1.29 | 1.26 | 0.734 | 0.917 | 1.05 | 0.82 | 0.962 |
| LC-2-ad | 0.572 | 0.649 | 0.62 | 0.282 | 0.203 | 0.769 | 0.802 | 0.909 | 0.0848 | 1.05 | 0.97 | 0.969 | 1.06 | 0.501 | 0.513 | 0.491 | 0.46 | 0.329 |
| LCLC-97TM1 | 0.83 | 0.863 | 0.793 | 0.722 | 0.602 | 0.209 | 0.265 | 0.267 | 0.256 | 0.832 | 0.929 | 1.08 | 1.03 | 0.443 | 0.402 | 0.605 | 0.323 | 0.202 |
| LCLC-103H | 0.491 | 0.538 | 0.539 | 0.393 | 0.26 | 0.906 | 1.1 | 0.901 | 0.741 | 0.846 | 0.834 | 0.884 | 0.868 | 1.08 | 1.03 | 1.14 | 1.09 | 0.901 |
| LK-2 | 0.26 | 0.303 | 0.285 | 0.346 | 0.201 | 0.98 | 1.05 | 1.02 | 0.566 | 1.08 | 1.54 | 1.29 | 0.308 | 0.327 | 0.32 | 0.296 | 0.283 | 0.803 |
| LOU-NH91 | 0.593 | 0.617 | 0.545 | 0.354 | 0.334 | 0.726 | 0.718 | 0.789 | 0.449 | 0.95 | 0.991 | 1.11 | 1.22 | 0.782 | 0.801 | 0.862 | 0.913 | 0.51 |
| LU99A | 0.553 | 0.607 | 0.548 | 0.377 | 0.271 | 0.462 | 0.468 | 0.617 | 0.193 | 0.774 | 0.807 | 0.796 | 0.772 | 0.527 | 0.596 | 0.685 | 0.549 | – |
| LXF-289 | 0.229 | 0.241 | 0.234 | 0.135 | 0.0357 | 0.977 | 1.06 | 1.04 | 0.193 | 0.892 | 1.09 | 0.968 | 0.962 | 0.784 | 0.899 | 0.848 | 0.854 | 1 |
| NCI-H23 | 0.7 | 0.878 | 0.902 | – | 0.748 | 0.638 | 0.759 | 0.786 | 0.438 | 0.898 | 1.02 | 0.991 | 0.611 | 0.744 | 0.667 | 0.678 | 0.398 | 0.732 |
| NCI-H522 | 0.78 | 0.883 | 0.869 | 0.725 | 0.722 | – | – | – | – | – | – | – | – | – | – | – | – | – |
| NCI-H1299 | – | – | – | – | – | 1 | 1.02 | 1.11 | 1.09 | 1.12 | 1.08 | 1.14 | 1.04 | 0.969 | 0.963 | 0.974 | 1.01 | 1.12 |
| NCI-H1395 | 0.441 | 0.444 | 0.434 | 0.399 | 0.356 | 1.13 | 1.04 | 1.09 | 0.619 | 1.08 | 0.954 | 1.01 | 1.15 | – | – | – | – | 0.813 |
| NCI-H1623 | 0.534 | 0.507 | 0.587 | 0.482 | 0.526 | – | – | – | – | 0.726 | 0.754 | 0.801 | 0.866 | – | – | – | – | – |
| NCI-H1650 | 0.302 | 0.362 | 0.288 | 0.16 | 0.168 | – | – | – | – | 1.29 | 1.21 | 1.13 | 0.498 | 1.12 | 1.09 | 1 | 0.764 | – |
| NCI-H1703 | – | – | – | – | – | 0.307 | 0.281 | 0.368 | 0.173 | 0.33 | 0.347 | 0.302 | 0.282 | 0.872 | 0.669 | 0.655 | 0.435 | 0.183 |
| NCI-H1792 | 0.781 | 0.906 | 0.871 | 0.551 | 0.401 | 0.626 | 0.665 | 0.752 | 0.563 | – | – | – | – | 0.916 | 1.01 | 0.844 | 0.976 | 0.541 |
| NCI-H1793 | 0.407 | 0.466 | 0.423 | 0.184 | 0.164 | 1.08 | 0.691 | 0.921 | 0.32 | 0.738 | 0.868 | 0.956 | 0.807 | – | – | – | – | 0.434 |
| NCI-H2342 | 0.309 | 0.321 | 0.341 | 0.303 | 0.277 | – | – | – | – | 1.09 | 0.974 | 1.01 | 0.969 | – | – | – | – | – |
| SW 900 | 0.592 | 0.384 | 0.79 | 0.23 | 0.0973 | – | – | – | – | 0.881 | 0.765 | 0.885 | 0.709 | – | – | – | – | – |
